# According to article PMC4982760, “Small-molecule inhibitors identify the RAD52-ssDNA interaction as critical for recovery from replication stress and for survival of BRCA2 deficient cells” (eLife, 2016):
# How the values were obtained:
# RPA = molecular target: T1, RPA (Homo sapiens, UniProt P15927+P27694+P35244); assay: WaterLOGSY NMR binding to RPA; conditions: 20-40 μM compound, 3.3 μM RPA
# T1 construct: made in house
# Text: To confirm that the selected compounds bind RAD52, we employed water-ligand observation with gradient spectroscopy (WaterLOGSY), an NMR technique, which is based on transfer of magnetization from bulk water to the protein-bound compound of interest ([Dalvit et al., 2001], [2000]). In WaterLOGSY spectrum, if a compound binds to a protein, the compound will receive negative nuclear Overhauser effects (NOEs) due to the slow tumbling of the protein-compound complex, leading to a positive WaterLOGSY peak. […] Similarly, the binding of ‘6’to RAD52 is evident from the positive WaterLOGSY peaks that are clearly detected for this compound (Figure 3a).
# Compound binding to RAD52 and RPA proteins was analyzed using water-ligand observation with gradient spectroscopy (WaterLOGSY) NMR experiments ([Dalvit et al., 2001], [2000]). The WaterLOGSY spectra of compounds in the presence of RAD52 or RPA were acquired using a water NOE mixing time of 1 s and a T2 relaxation filter of 50 ms just before data acquisition to suppress the broad signals derived from protein. The protein buffer used in the experiments contains 10 mM Tris-d11, 75 mM KCl, 0.25 mM EDTA, pH 7.5, and 10% D20. All NMR data were acquired on a Bruker Avance II 800 MHz NMR spectrometer equipped with a sensitive cryoprobe and recorded at 25°C. The ^1H chemical shifts were referenced to 2,2-dimethyl-2-silapentane-5-sulfonate (DSS). NMR spectra were processed using NMR Pipe ([Delaglio et al., 1995]) and analysed using NMR View ([Johnson and Blevins, 1994]).
# [1] = molecular target: T2, interaction between RAD52 and RPA proteins (Homo sapiens, UniProt P43351); assay: Ni-NTA pull-down of the RAD52-RPA interaction; type: binding; conditions: 3 μM RAD52, 3 μM RPA, 3 μM compound
# T2 construct: made in house
# [2] = tested on: GM01604 cells (hTERT-immortalized wild-type human fibroblasts); assay: Neutral comet assay, MUS81/EME1/RAD52-dependent DSB formation; type: cell-based; conditions: GM01604, HU + UCN01
# Text: In human cells, RAD52 may perform both limited recombination-mediator function in the RAD51-dependent pathway ([Lok and Powell, 2012]; [Benson et al., 1998]; [Feng et al., 2011]) as well as additional RAD51-independent roles ([Lok and Powell, 2012]; [Murfuni et al., 2013]; [McIlwraith and West, 2008]). One of these HR independent roles of RAD52 involves stimulation of MUS81/EME1-dependent DSB formation at replication forks stalled by hydroxyurea (HU) treatment in the absence of cellular checkpoints ([Murfuni et al., 2013]). Since the most likely targets of these MUS81/EME1/RAD52-dependent DSBs are the DNA structures produced by RAD52 ([Murfuni et al., 2013]), we expected this activity to depend on the RAD52-ssDNA interaction (Figure 5a). To confirm this, we assessed DSB formation in checkpoint deficient cells using the neutral comet assay. These assays monitor MUS81/EME1/RAD52-dependent DSB formation upon induction of replication stress by HU treatment in primary fibroblasts immortalized by hTERT expression and treated with UNC01 to inhibit CHK1 kinase (Figure 5b). […] Importantly, these inhibitors recapitulate RAD52 depletion by inhibiting RAD52-MUS81-dependent DSBs at stalled replication forks (Figure 5a–b). […] It also confirms our previous supposition that the target of MUS81/EME1-mediated cleavage under these conditions are indeed the structures annealed by RAD52. […]
# To induce RAD52-MUS81-dependent cleavage at arrested replication forks ([Murfuni et al., 2013]), hTERT-immortalized wild-type human fibroblasts (GM01604) were treated with 2 mM HU and 300 nM UCN01 for 6h, in the presence and absence of varying concentrations of ‘1’ or ‘6’. […] Slides were analyzed by a computerized image analysis system (Comet IV, Perceptive UK). To assess the quantity of DNA damage, computer-generated tail moment values (tail length x fraction of total DNA in the tail) were used. […] A minimum of 100 cells were analyzed for each compound concentration point.
# T1 sequence (P27694 whole entry): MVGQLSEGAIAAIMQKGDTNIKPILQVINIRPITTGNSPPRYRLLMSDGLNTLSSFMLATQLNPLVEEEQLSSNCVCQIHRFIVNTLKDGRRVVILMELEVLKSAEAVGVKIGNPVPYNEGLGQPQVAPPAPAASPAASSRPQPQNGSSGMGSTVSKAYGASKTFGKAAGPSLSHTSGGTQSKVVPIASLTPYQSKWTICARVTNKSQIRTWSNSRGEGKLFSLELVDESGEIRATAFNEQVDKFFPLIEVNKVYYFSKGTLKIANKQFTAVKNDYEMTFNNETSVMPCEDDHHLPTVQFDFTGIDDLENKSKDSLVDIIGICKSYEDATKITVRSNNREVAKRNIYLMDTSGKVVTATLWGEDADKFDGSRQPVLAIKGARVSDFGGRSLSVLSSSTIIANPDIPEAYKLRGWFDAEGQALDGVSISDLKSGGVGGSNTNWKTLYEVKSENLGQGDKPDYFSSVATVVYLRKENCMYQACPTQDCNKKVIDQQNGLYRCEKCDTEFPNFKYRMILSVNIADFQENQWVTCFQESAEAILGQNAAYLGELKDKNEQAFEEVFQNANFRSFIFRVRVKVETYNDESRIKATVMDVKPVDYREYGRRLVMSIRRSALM
# T1 sequence (P15927 whole entry): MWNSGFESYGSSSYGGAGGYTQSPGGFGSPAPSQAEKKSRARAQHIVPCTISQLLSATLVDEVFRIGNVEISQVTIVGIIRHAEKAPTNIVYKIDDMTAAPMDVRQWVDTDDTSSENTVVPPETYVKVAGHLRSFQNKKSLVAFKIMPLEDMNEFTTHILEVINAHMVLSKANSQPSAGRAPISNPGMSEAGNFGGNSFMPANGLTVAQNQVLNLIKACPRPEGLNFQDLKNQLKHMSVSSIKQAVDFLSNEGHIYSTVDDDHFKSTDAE
# T1 sequence (P35244 whole entry): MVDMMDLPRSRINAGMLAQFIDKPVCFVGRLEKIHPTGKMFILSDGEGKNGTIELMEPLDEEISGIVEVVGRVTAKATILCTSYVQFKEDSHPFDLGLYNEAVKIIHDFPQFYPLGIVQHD
# T2 sequence (P43351 whole entry): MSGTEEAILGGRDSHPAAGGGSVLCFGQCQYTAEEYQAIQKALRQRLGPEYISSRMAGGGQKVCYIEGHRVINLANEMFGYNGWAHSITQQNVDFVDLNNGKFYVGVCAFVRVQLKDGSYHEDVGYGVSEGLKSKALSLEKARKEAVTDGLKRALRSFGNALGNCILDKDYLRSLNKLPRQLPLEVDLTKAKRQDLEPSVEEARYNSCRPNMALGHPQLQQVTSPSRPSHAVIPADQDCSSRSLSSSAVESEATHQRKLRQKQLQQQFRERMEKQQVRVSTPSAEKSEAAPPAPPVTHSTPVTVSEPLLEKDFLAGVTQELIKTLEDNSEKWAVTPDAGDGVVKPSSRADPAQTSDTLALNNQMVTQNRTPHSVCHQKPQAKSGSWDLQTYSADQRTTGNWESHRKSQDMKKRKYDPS
# T2 sequence (P27694 whole entry partner): as the sequence (P27694 whole entry) above
# T2 sequence (P15927 whole entry partner): as the sequence (P15927 whole entry) above
# T2 sequence (P35244 whole entry partner): as the sequence (P35244 whole entry) above
structure (smiles),measurement,setting,value
"Oc1cc(O)c2c(c1)O[C@H](c1cc(O)c(O)c(O)c1)[C@H](O)C2 [Compound 1, (−)−Epigallocatechin]",binding to RPA (WaterLOGSY),RPA,neither binds to RPA
same,effect on the RAD52-RPA interaction,[1],neither ‘1’ nor ‘6’ interfered with the interaction between the two proteins
same,concentration sufficient for same level of DSB reduction as siRNA treatment,[2],1 µM
same,concentration with same reduction in DSBs as siRNA depletion of RAD52,[2],500 nM
